Laboratory results from PubChem BioAssay (NCI).
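All cell lines were grown in 96-well plates and treated with compound for 48 hours. At the GI50, growth is halved. At the TGI there is no net growth.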

Columns and labels:
Assay in all cases: NCI anticancer screen, dose series, 48 h
[1] = tested on: SF-539 CNS
[2] = tested on: OVCAR-3 ovarian
[3] = tested on: BT-549 breast
[4] = tested on: SF-268 CNS
[5] = tested on: UO-31 renal
[6] = tested on: HOP-62 NSCLC
[7] = tested on: SR leukemia
[8] = tested on: HL-60(TB) leukemia

Structure (SMILES) | TGI [1] [µM] | TGI [2] [µM] | TGI [3] [µM] | TGI [4] [µM] | TGI [5] [µM] | TGI [6] [µM] | TGI [7] [µM] | GI50 [1] [µM] | GI50 [2] [µM] | GI50 [3] [µM] | GI50 [4] [µM] | GI50 [6] [µM] | TGI [8] [µM] | GI50 [5] [µM] | GI50 [8] [µM] | GI50 [7] [µM]
CCc1n[nH]c(=O)n1CCCCCCCCCCCCn1c(CC)n[nH]c1=O | > 100 | > 100 | 77.5 | > 100 | > 100 | > 100 | > 100 |  |  |  |  |  |  |  |  | 
CN1CCC(CNc2cc(C3(C(=O)Nc4cc(C(=O)Nc5ccc(Cl)c(C(F)(F)F)c5)ccc4F)CC3)ncn2)CC1 | 3.19 | 8.44 | 9.89 | 5.5 |  | 3.97 |  | 1.61 | 2.57 | 3.01 | 2.08 | 2 |  |  |  | 
CN(C)CCNc1ccc2c(=O)n(CCN(C)C)c(=O)n3c4ccc(O)cc4c(=O)c1c23 | < 0.0389 | 1.29 | 2.35 | 0.416 | 0.282 |  | < 0.01 |  |  |  |  |  |  |  |  | 
Cn1c(=O)c2c(nc3n(CC(O)CCl)c(=O)ccn23)n(C)c1=O (stereo unspecified) | > 100 | > 100 | > 100 | > 100 | > 100 | > 100 |  |  |  |  |  |  | > 100 |  |  | 
NC(=O)Nc1c(Cl)cc(S(N)(=O)=O)cc1Cl | > 100 | > 100 | > 100 | > 100 | > 100 | > 100 |  |  |  |  |  |  | > 100 |  |  | 
O=c1[nH]c(Nc2ccccc2)nc2c1ncn2CC(O)CSCCO (stereo unspecified) | > 100 | > 100 | > 100 | > 100 |  | > 100 | > 100 |  |  |  |  |  | > 100 |  |  | 
C#CCNC(CSSCC(N)C(=O)O)C(=O)O (stereo unspecified) | > 100 | > 100 |  | > 100 | > 100 | > 100 |  |  |  |  |  |  |  |  |  | 
O=c1[nH]c2nc3ccccc3c(=O)n2/c1=C/c1ccc(Cl)cc1 | 47.7 | > 100 | 46.2 | > 100 | > 100 | > 100 | > 100 |  |  |  |  |  | > 100 |  |  | 
O=C(/C=C(/C=C/c1ccc2[nH]ccc2c1)OB(F)F)/C=C/c1ccc2[nH]ccc2c1 | 9.29 |  |  | 6.41 | 5.55 | > 100 | > 100 | 2.68 |  |  | 1.51 | 3.38 | > 100 | 1.35 | 1.88 | 0.451
Cc1ccc2c(c1)-c1nc(N)c(C#N)c(-c3ccc(Cl)cc3)c1CCS2(=O)=O |  |  | > 100 | > 100 | 86.2 |  | 65.6 |  |  |  |  |  | 47 |  |  | 
CCn1nc(C)c2c1C(=O)NCC(=O)N2 | > 100 | > 100 | > 100 | > 100 | > 100 |  |  |  |  |  |  |  |  |  |  | 
COC1CC(N)(c2ccccc2)C(O)C(C)O1 (stereo unspecified) | > 100 | > 100 | > 100 | > 100 | > 100 | > 100 | > 100 |  |  |  |  |  | > 100 |  |  | 
CC(N=NNc1ccc(-c2nc3ccccc3[nH]2)cc1)C(=O)O (stereo unspecified) | > 100 | 54.7 | 57.6 | > 100 | > 100 | > 100 | > 100 |  |  |  |  |  | > 100 |  |  | 
O=c1[nH]/c(=C/c2ccc(OCc3ccccc3)cn2)c(=O)[nH]/c1=C/c1ccccc1 | > 67 | > 78.6 | > 100 | > 100 | > 100 | > 100 | 14.4 |  |  |  |  |  |  |  |  | 
Cc1ccc(C(=N)c2ccccc2Cc2cccc3ccccc23)c2ccccc12 | > 100 | > 100 | > 100 | > 100 | > 100 | > 100 | > 100 |  |  |  |  |  | > 100 |  |  | 
COc1cc(/C=C2\C(=O)N(c3cccc([N+](=O)[O-])c3)C(c3ccccc3)S2(=O)=O)cc(OC)c1OC (stereo unspecified) |  | > 100 | > 100 |  | > 100 | > 100 | > 100 |  |  |  |  |  | > 100 |  |  | 
COc1ccc2c(c1)C(=O)CC1c3cnccc3C(=O)N21 (stereo unspecified) | > 100 | > 100 | > 100 | > 100 | 99.5 | > 100 | > 100 |  |  |  |  |  |  |  |  | 
CC(=O)NC1C(OCc2ccccc2)OC(CO)C(O)C1OCC(=O)N1CCCC1C(=O)N[C@@H](CCC(=O)NCCCCNc1c2ccccc2nc2cccc([N+](=O)[O-])c12)C(N)=O (stereo partly specified) | > 100 | 61.9 | 43.7 | > 100 | > 100 | > 100 | > 100 |  |  |  |  |  |  |  |  | 
CC1CC[C@@]2(OC1)OC1C[C@H]3[C@@H]4CC=C5CC(OC6OC(CO)C(OC7OC(CO)C(O)C(OC8OCC(O)C(O)C8O)C7OC7OC(CO)C(OC8OC(C)C(OC9OC(C)C(O)C(O)C9O)C(O)C8O)C(O)C7O)C(O)C6O)CCC5(C)[C@H]4CCC3(C)C1[C@@H]2C (stereo partly specified) | 12.7 | 20.7 | 16.4 | 18 |  | 19 | 50 |  |  |  |  |  | 17.2 |  |  | 
C=CCSC1=N/C(=C\c2ccc(Cl)cc2)C(=O)N1CC=C | > 100 | > 100 | 76.2 | > 100 | > 100 | > 100 | 48.4 |  |  |  |  |  | 24.5 |  |  | 
CC1=NNC(=O)C1C1C(=O)NN=C(c2c[nH]c3ccccc23)C1Br (stereo unspecified) | > 100 | > 100 | > 100 | > 100 | > 100 | > 100 |  |  |  |  |  |  | > 100 |  |  | 
COc1ccc(N2CC(=O)N(C(=O)COc3ccc(OCC(=O)N4C(=O)CN(c5ccc(OC)cc5)C4=S)cc3)C2=S)cc1 |  |  | > 100 | > 100 | > 100 |  |  |  |  |  |  |  |  |  |  | 
C[C@@]1(O)C2CC3CC1(c1ccccc1)CC(/C3=N/O)/C2=N\O (stereo partly specified) | > 100 | > 100 |  | > 100 | > 100 | > 100 | > 100 |  |  |  |  |  | > 100 |  |  | 
Cc1ccc2nc(SCC(=O)N=Nc3c(O)[nH]c4ccccc34)n(-c3ccccc3)c(=O)c2c1 | 19 | 41.9 |  | 26.6 | 12.9 | 24.6 | 36.7 |  |  |  |  |  | 62.2 |  |  | 
CCCCN(CCCC)Cc1cc(Nc2ccnc3cc(Cl)ccc23)ccc1O |  | > 100 |  | > 100 | > 100 | > 100 | > 100 |  | 74.7 |  | > 100 | 2.54 | > 100 | 1.38 | 5.88 | 6.59
